Source: patent US8318770B2, “Tetrahydroquinoline indole derivatives and uses thereof” (Roche Palo Alto LLC, priority 2009, dated 2012)

Key:
Assay type in all cases: binding
[1] = molecular target: T1, human norepinephrine transporter (hNET) (Homo sapiens, UniProt P23975); test: Human norepinephrine transporter (hNET) scintillation proximity assay, competition with [3H]-Nisoxetine; details: membranes of HEK-293 cells expressing recombinant hNET, Ki by Cheng-Prusoff
T1 construct: expressed in transfected cells; host or cells: HEK-293 (Clone: HEK-hNET #2)
Method: This assay was used to determine the affinity of ligands for the hNET transporter by competition with [^3H]-Nisoxetine. As in the hSERT assay of the above example, receptor-containing membranes were pre-coupled to the SPA beads and the binding of the appropriate radioligand to the transporter was measured. The light emission was proportional to the amount of bound radioligand, with unbound radioligand producing no signal.
HEK-293 cells (Tatsumi et al., Eur. J. Pharmacol. 1997, 30, 249-258) stably expressing recombinant hNET (Clone: HEK-hNET #2) were maintained with media (DMEM hi glucose with 10% FBS, 300 ug/ml G418 and 2 mM L-Glutamine) and incubated at 37° C. with 5% CO2. Cells were released from culture flasks using PBS for 1-2 minutes. […]
(§1) Cell membranes were prepared using a membrane preparation buffer of 50 mM TRIS (pH 7.4). […] After a second centrifugation, the pellet was re-homogenized and brought to a final volume determined during the assay. […]
^3[H] […] The mixtures were allowed to stand at room temperature for one hour, and were then counted on a Packard TopCount LCS, a generic SPA counting protocol settings (Energy Range: Low, Efficiency Mode: Normal, Region A: 1.50-35.00, Region B: 1.50-256.00, Count Time (min.): 0.40, Background Subtract: none, Half-Life Correction: no, Quench Indicator: tSIS, Platemap blank subtraction: No, Cross talk reduction: Off). […]

[2] = molecular target: T2, human dopamine transporter (hDAT) (Homo sapiens, UniProt Q01959); test: Human dopamine transporter (hDAT) scintillation proximity assay, competition with [3H]-Vanoxerine; details: HEK-293 cells expressing recombinant hDAT, Ki by Cheng-Prusoff
T2 construct: expressed in transfected cells; host or cells: HEK-293
Method: This assay was used to determine the affinity of ligands for the dopamine transporter by competition with [^3H]-Vanoxerine.
HEK-293 cells (Tatsumi et al., Eur. J. Pharmacol. 1997, 30, 249-258) stably expressing recombinant hDAT were maintained with media (DMEM hi glucose with 10% FBS, […] G418 and 2 mM L-Glutamine) and incubated at 37° C. with 5% CO2. Cells were plated four hours prior to experiment by placing approximately 30,000 cells per well (in PBS) on white, opaque Cell-Tak coated 96 well plates. Extra buffer was apriated from the cell plates using an ELx405 plate washer.
^3[H] vanoxerine (GBR 12909) radioligand, specific activity approximately 59 Ci/mmol, stock concentration, 400 nM, and 50 mM Tris-HCl, 300 mM NaCl, (pH 7.4) buffers were used for Scintillation Proximity Assay IC50/Ki determination. […]
The % inhibition was calculated for each compound tested [(Compound CPM at maximum concentration-Non-Specific CPM)/Total CPM*100]. […]
(§2) [formula] where max=total binding, min=non specific binding, x=concentration (M) of the tested compound and n=Hill slope. The inhibition dissociation constant (Ki) of each compound was determined according to the method of Cheng-Prusoff and then converted into negative logarithm (pKi) of the Ki.

[3] = molecular target: T3, human serotonin transporter (hSERT) (Homo sapiens, UniProt P31645); test: Human serotonin transporter (hSERT) scintillation proximity assay, competition with [3H]-Citalopram; details: membranes of HEK-293 cells expressing recombinant hSERT, Ki by Cheng-Prusoff
T3 construct: expressed in transfected cells; host or cells: HEK-293
Method: The screening assay of this example was used to determine the affinity of ligands at the hSERT transporter by competition with [^3H]-Citalopram.
Scintillation Proximity Assay (SPA) works by bringing radioligand within close proximity to the bead's scintillant to stimulate light emission. In this assay, the receptor-containing membranes were pre-coupled to the SPA beads and the binding of the appropriate radioligand to the transporter was measured. The light emission was proportional to the amount of bound radioligand. Unbound radioligand produced no signal as a result of distant proximity to scintillant (lack of energy transfer). […]
as §1
The % inhibition was calculated for each compound tested [(Compound counts per minute (CPM) at maximum concentration-Non-Specific CPM)/Total CPM*100]. […]
as §2

T3 sequence (P31645 whole entry): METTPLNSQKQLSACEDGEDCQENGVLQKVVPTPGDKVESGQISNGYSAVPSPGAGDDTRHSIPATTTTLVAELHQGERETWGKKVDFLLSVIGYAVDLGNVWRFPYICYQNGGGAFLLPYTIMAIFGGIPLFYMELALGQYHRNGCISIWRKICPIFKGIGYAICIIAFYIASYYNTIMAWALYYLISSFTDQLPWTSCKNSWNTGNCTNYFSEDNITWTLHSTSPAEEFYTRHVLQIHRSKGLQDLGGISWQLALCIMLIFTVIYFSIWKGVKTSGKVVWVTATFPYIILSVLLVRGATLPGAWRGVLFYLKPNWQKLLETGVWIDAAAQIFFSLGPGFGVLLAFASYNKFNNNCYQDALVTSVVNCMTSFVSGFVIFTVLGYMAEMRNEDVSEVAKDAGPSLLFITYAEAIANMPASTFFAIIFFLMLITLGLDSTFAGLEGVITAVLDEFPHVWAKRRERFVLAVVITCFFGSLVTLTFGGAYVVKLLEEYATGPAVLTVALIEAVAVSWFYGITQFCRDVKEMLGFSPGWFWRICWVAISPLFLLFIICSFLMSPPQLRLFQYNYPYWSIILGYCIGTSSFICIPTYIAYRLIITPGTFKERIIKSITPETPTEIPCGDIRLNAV
T1 sequence (P23975 whole entry): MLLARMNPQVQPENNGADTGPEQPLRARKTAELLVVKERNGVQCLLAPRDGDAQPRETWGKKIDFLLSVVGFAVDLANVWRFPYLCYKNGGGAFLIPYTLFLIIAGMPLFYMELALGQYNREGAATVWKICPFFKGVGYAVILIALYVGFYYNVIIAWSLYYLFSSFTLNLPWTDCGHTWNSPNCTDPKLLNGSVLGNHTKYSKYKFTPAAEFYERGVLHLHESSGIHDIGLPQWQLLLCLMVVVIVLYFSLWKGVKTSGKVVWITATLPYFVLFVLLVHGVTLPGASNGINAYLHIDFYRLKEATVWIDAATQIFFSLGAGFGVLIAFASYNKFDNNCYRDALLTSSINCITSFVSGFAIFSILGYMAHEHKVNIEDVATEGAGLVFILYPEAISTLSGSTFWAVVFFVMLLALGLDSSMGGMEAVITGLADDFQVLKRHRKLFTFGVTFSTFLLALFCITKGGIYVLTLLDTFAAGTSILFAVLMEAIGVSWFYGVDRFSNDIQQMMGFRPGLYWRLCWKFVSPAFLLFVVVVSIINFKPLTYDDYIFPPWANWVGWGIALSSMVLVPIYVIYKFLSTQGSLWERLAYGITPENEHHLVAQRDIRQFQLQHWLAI
T2 sequence (Q01959 whole entry): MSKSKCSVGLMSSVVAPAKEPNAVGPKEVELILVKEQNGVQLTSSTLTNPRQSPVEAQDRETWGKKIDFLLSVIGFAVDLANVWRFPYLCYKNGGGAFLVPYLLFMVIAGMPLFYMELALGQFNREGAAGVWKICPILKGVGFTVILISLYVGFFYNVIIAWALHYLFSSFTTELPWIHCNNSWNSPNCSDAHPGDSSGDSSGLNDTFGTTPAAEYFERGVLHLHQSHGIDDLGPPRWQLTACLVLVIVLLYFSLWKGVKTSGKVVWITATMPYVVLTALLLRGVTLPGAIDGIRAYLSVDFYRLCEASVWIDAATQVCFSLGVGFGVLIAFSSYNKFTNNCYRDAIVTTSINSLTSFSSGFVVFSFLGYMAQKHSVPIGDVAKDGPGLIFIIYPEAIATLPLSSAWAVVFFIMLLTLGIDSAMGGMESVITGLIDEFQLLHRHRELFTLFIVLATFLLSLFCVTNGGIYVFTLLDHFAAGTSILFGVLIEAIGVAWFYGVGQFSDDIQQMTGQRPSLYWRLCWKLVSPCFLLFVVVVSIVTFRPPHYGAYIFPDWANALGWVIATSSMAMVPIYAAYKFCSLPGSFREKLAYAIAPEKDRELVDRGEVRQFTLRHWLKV

With `CNC1CCN(c2ccc3[nH]ccc3c2)c2ccccc21` (stereo not drawn) [[1-(1H-Indol-5-yl)-1,2,3,4-tetrahydro-quinolin-4-yl]-methyl-amine] as the compound, how does the Ki [1] read?
Its Ki is about 0.0155 µM.

What about the Ki [2] of the same compound?
The Ki was about 0.0141 µM.

And the Ki [3]?
Its Ki is about 0.0331 µM.
